These results are taken from PubChem BioAssay AID1349 (Sanford-Burnham Center for Chemical Genomics, 2008).

The source made the active and inactive calls.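 How the source made its calls: active means survival above the stress-only control level plus 20 points, here above 50%; inactive means the rest.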

The subject of this assay is CSM14.1 tunicamycin-induced death, Annexin V/PI flow, 72 h. Nature of the assay: rescue of CSM14.1 cells from tunicamycin, SAR follow-up, orthogonal assay for ER stress death inhibitor project, undifferentiated CSM14.1, flow cytometry (AID 1349). To be noted: at 25 µM; stronger effect = higher value. (In general: In flow cytometry, cells or beads pass a laser one at a time.)
On to `CC1(C)CC(=O)C2=C(C1)Nc1ccccc1NC2c1ccc(-c2ccccc2)cc1` (stereo unspecified), for which the survival is 92%.

For `COc1ccc(C2CC(=O)C3=C(C2)Nc2ccccc2NC3c2cccc(Oc3ccccc3)c2)cc1OC` (stereo unspecified), the survival is 54%.

On to `COc1ccc(C2CC(=O)C3=C(C2)Nc2ccccc2NC3c2cccc(C(F)(F)F)c2)cc1OC` (stereo unspecified), for which the survival was 82%.

For `CCCOc1ccc(C2Nc3ccccc3NC3=C2C(=O)CC(c2ccc(OC)c(OC)c2)C3)cc1` (stereo unspecified), the survival is 74%.

For `CCOc1cc(C2Nc3ccccc3NC3=C2C(=O)CC(c2ccc(OC)cc2)C3)cc(Cl)c1O` (stereo unspecified), the survival was 52%.

For `COc1ccc(C2CC(=O)C3=C(C2)Nc2ccccc2NC3c2cc(C)ccc2C)cc1` (stereo unspecified), the survival was 70%.

With `CCOc1cccc(C2Nc3ccccc3NC3=C2C(=O)CC(c2ccc(OC)cc2)C3)c1` (stereo unspecified), the survival is 49% (inactive).

For the molecule `COc1ccc(C2CC(=O)C3=C(C2)Nc2ccccc2NC3c2cccc(Br)c2)cc1OC` (stereo unspecified), the survival was 67%.

For `O=C1CC(c2ccccc2)CC2=C1C(c1c(F)cccc1Cl)Nc1ccccc1N2` (stereo unspecified), the survival was 58%.

With `COc1ccc(C2CC(=O)C3=C(C2)Nc2ccccc2NC3c2ccccc2C(F)(F)F)cc1OC` (stereo unspecified), the survival is 65%.

As to `CSc1ccc(C2Nc3ccccc3NC3=C2C(=O)CC(c2ccccc2)C3)cc1` (stereo unspecified), the survival was 62%.
